System: embryo insect cells (trichiopusia ni)
Experiment: Toxicity test on embryo insect cells
Assay type: cell-based
Excerpt: Second, p-dodecanoyl-calix[4]arene has been tested on embryo insect cells (trichiopusia ni). Viability values of more than 80% have been found.

CCCCCCCCCCCC(=O)c1cc2c(O)c(c1)Cc1cc(C(=O)CCCCCCCCCCC)cc(c1O)Cc1cc(C(=O)CCCCCCCCCCC)cc(c1O)Cc1cc(C(=O)CCCCCCCCCCC)cc(c1O)C2 [p-dodecanoyl-calix[4]arene]
Viability: more than 80%
